Data as given in PubChem BioAssay (NCI).
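96-well plates; 48 h exposure; 5 concentrations. Endpoints by linear interpolation between flanking doses. Not reached: highest tested concentration assigned. Abbreviation: GI50, concentration required for 50% inhibition of growth. TGI: total growth inhibition.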

Columns and labels:
Assay in all cases: growth of human tumour cells (NCI), 48 h
HL-60(TB) leukemia = tested on: HL-60(TB) leukemia
SW-620 colon = tested on: SW-620 colon
IGROV1 ovarian = tested on: IGROV1 ovarian
HOP-62 NSCLC = tested on: HOP-62 NSCLC
SNB-75 CNS = tested on: SNB-75 CNS
TK-10 renal = tested on: TK-10 renal
U251 CNS = tested on: U251 CNS
SNB-19 CNS = tested on: SNB-19 CNS
CCRF-CEM leukemia = tested on: CCRF-CEM leukemia
T-47D breast = tested on: T-47D breast

SMILES | TGI (HL-60(TB) leukemia) | TGI (SW-620 colon) | TGI (IGROV1 ovarian) | TGI (HOP-62 NSCLC) | TGI (SNB-75 CNS) | TGI (TK-10 renal) | TGI (U251 CNS) | TGI (SNB-19 CNS) | TGI (CCRF-CEM leukemia) | TGI (T-47D breast) | GI50 (SW-620 colon) | GI50 (IGROV1 ovarian) | GI50 (SNB-75 CNS) | GI50 (TK-10 renal) | GI50 (U251 CNS) | GI50 (SNB-19 CNS) | GI50 (HL-60(TB) leukemia) | GI50 (HOP-62 NSCLC) | GI50 (CCRF-CEM leukemia) | GI50 (T-47D breast)
C/C(=C\C(=O)Nc1ccc2n[nH]nc2c1)Nc1ccc2n[nH]nc2c1 | > 100 µM | > 100 µM | > 100 µM | > 100 µM | > 100 µM | > 100 µM | > 100 µM | > 100 µM | > 100 µM |  |  |  |  |  |  |  |  |  |  | 
Cc1c2cc[n+](Cc3ccc(I)cc3)cc2c(C)c2c1[nH]c1ccccc12 | 1.11 µM | > 25 µM | > 25 µM | > 21.7 µM | 1.58 µM |  | 8.59 µM | 9.55 µM | 9.51 µM |  |  |  |  |  |  |  |  |  |  | 
ClC1=NSSC1(Cl)Cl | 5.25 µM | 82.3 µM | > 100 µM | > 100 µM | > 100 µM |  | > 100 µM | > 100 µM | > 100 µM |  |  |  |  |  |  |  |  |  |  | 
C[C@]12CC[C@H]3[C@@H](CC=C4C[C@@H](O)CC[C@@]43C)[C@@H]1C/C(=C\c1cccnc1)[C@@H]2O |  | > 100 µM | > 100 µM | 29.4 µM |  | 66.8 µM | 28.7 µM | 61.5 µM | > 100 µM |  |  |  |  |  |  |  |  |  |  | 
Oc1c(Br)cc2c(c1Br)-c1c(c(O)c3c4c1=NCCC=4C=N3)NCC2 | 16.9 µM | 50.1 µM | 27.4 µM | > 66.3 µM | 34.5 µM |  | 24.5 µM | 35.7 µM | 9.49 µM |  |  |  |  |  |  |  |  |  |  | 
CN(C(=O)Cc1ccccc1)n1cn[n+](CC(=O)OC(C)(C)C)c1 |  | > 10 µM | > 10 µM | > 10 µM |  | > 10 µM | > 10 µM | > 10 µM | > 10 µM | > 10 µM |  |  |  |  |  |  |  |  |  | 
CNC(=S)N/N=C/C(C)=N/NC(=S)NC |  | > 100 µM |  | > 100 µM |  | > 100 µM | > 100 µM | > 100 µM |  |  |  |  |  |  |  |  |  |  |  | 
COCN1C(=O)[C@@H]2CCCN2C(=O)c2ccc(N)cc21 | > 100 µM | > 100 µM | > 100 µM | > 100 µM | > 100 µM | > 100 µM | > 100 µM | > 100 µM | > 100 µM |  |  |  |  |  |  |  |  |  |  | 
Nc1nc(Cl)c(CO)c(NCC2(CO)CCC2)n1 | > 100 µM | > 100 µM | > 100 µM | > 100 µM | > 100 µM | > 100 µM | > 100 µM | > 100 µM | > 100 µM |  |  |  |  |  |  |  |  |  |  | 
N#C[S-].[La+3].c1ccc(-c2ccccn2)nc1.c1ccc(-c2ccccn2)nc1.c1ccc(-c2ccccn2)nc1 |  | > 100 µM | 60.5 µM |  | > 100 µM | > 100 µM | > 100 µM | > 100 µM |  |  | 33.6 µM | 25.6 µM | 25.9 µM | 15.7 µM | 20.1 µM | 54.6 µM |  |  |  | 
[CH3][Sn]([CH3])([CH3])[S]C(=S)N1CCOCC1 | 1.3 µM | 2.42 µM | 8.52 µM | 4.86 µM | > 31.4 µM |  | 11.4 µM |  | 1.67 µM |  | 0.208 µM | 0.69 µM | 3.34 µM |  | 2.82 µM |  | 0.217 µM | 2.28 µM | 0.0701 µM | 
CCN(CC)c1c(C(C)(C)C)c(=O)n2ccsc2c1OC(C)=O | > 100 µM | 30.6 µM | 31.2 µM | 26.1 µM | 31 µM | 34.7 µM | 30.8 µM | 30.4 µM | > 100 µM |  |  |  |  |  |  |  |  |  |  | 
CCOP1(=O)CC(C)=C(Cl)C(OC)C1 (centres undefined) | > 100 µM | > 100 µM | > 100 µM | > 100 µM | > 100 µM | > 100 µM | > 100 µM | > 100 µM | > 100 µM |  |  |  |  |  |  |  |  |  |  | 
CCCCCCCCCCCC1N=C(N)N=C(N)N1c1cccc(Br)c1 (centres undefined) |  | 2.26 µM | 2.58 µM |  |  | 2.94 µM | 1.98 µM |  |  |  | 0.837 µM | 1.14 µM |  | 1.56 µM | 0.631 µM |  |  |  |  | 
COc1cc2c(c(OC)c1OC)C(=O)c1c(O)cc(C)c(OC)c1C2=O | > 100 µM | > 100 µM | > 100 µM | > 100 µM | > 100 µM | > 100 µM | > 100 µM | > 100 µM |  |  |  |  |  |  |  |  |  |  |  | 
Cc1ccc(C)c2c1C1CCCCC3(OCCCO3)C21O (centres undefined) | > 100 µM | > 100 µM | > 100 µM | > 100 µM | > 100 µM | > 100 µM | > 100 µM | > 100 µM | > 100 µM |  |  |  |  |  |  |  |  |  |  | 
Cc1ccc(S(=O)(=O)OC[C@@]2(C)CC[C@]3(C)CC[C@]4(C)C(=C3C2)C=C[C@@H]2[C@@]3(C)CCCNC(C)(C)[C@@H]3CC[C@]24C)cc1 |  | 3.54 µM |  |  | 3.1 µM | 3.59 µM | 3.17 µM |  | 6.06 µM | 3.26 µM | 1.78 µM |  | 1.61 µM | 1.88 µM | 1.66 µM |  |  |  | 2.14 µM | 1.55 µM
Cc1cccc2c(=O)c3c(O)cc(O)cc3n(C)c12 | > 100 µM | > 100 µM | > 100 µM | > 100 µM | > 100 µM | > 100 µM | > 100 µM | > 100 µM | > 100 µM |  |  |  |  |  |  |  |  |  |  | 
OC12CCC3(OC4CCCCO4)c4ccccc4C3C1c1ccccc12 (centres undefined) | > 100 µM | > 100 µM |  | > 100 µM | > 100 µM | > 100 µM | > 100 µM | > 100 µM | > 100 µM |  |  |  |  |  |  |  |  |  |  | 
